Measured values taken from patent US4024277A, “Phosphoro-aminosulfenyl derivatives of benzofuran carbamates” (priority 1975, dated 1977).

Columns and labels:
large milkweed bug [1] = assay: Seven-day residual insecticidal activity, milkweed bug; format: in vivo, Oncopeltus fasciatus (Dallas); conditions: Oncopeltus fasciatus, 48-hour exposure, read-out: % Kill, Milkweed Bug
Source text: (§1) b. Seven-Day Residual Insecticidal Activity
(§2) In this test, a candidate insecticide, in solution, is applied to uninfested plants or containers by dipping or spraying. A seven-day holding period is necessary before infestation. A 48-hour exposure period is observed before evaluation of the tests. The insect species used in this type of test are the same as those listed under initial activity.

plum curculio [2] = assay: Initial insecticidal activity, plum curculio; format: in vivo, Conotrachelus nenuphar (Herbst); conditions: Conotrachelus nenuphar, 48-hour exposure, read-out: % Kill, Plum Curculio
Source text: (§3) a. Initial Insecticidal Activity
(§4) In this test, a candidate insecticide, in solution, is applied to either infested or uninfested plants or containers by spraying or dipping. (The preferred test procedure varies with insect species. The dipping method is better than the spraying method, and vice versa, for certain species of insects. Also some species are better adapted to the test by infesting after the chemical treatment rather than before.) Once the tests have been established, a 48-hour exposure period is observed before reading the tests. Insect species included in these tests are Mexican bean beetle (Epilachna varivestis Mulsant), pea aphid [Acyrthosiphon pisum (Harris)], southern armyworm [Spodoptera eridania (Cramer)], twospotted spider mite (Tetranychus urticae Koch), large milkweed bug [Oncopeltus fasciatus (Dallas)], plum curculio [Conotrachelus nenuphar (Herbst)], confused flour beetle (Tribolium confusum Jacquelin duVal) and granary weevil [Sitophilus granarius (Linnaeus)]. Test results are set forth in Table I. A control sample, comprising the solution without the candidate insecticide, is also included.

southern armyworm [3] = assay: Systemic insecticidal activity (soil/water), southern armyworm; format: in vivo, Spodoptera eridania (Cramer); conditions: Spodoptera eridania, 48-hour exposure, read-out: % Kill, Southern Armyworm
Procedure: (§5) c. Systemic Insecticidal Acitivity (Soil/Water)
(§6) In this test, a candidate insecticide, in solution, is added to the soil of either uninfested pinto bean seedlings (Phaseolus vulgaris) or uninfested broad bean seedlings (Vicia faba var. Windsor). The plant species used depend on the insect species in the test. Usually, a 72-hour translocation period before infestation is required, followed by a 48-hour exposure period, before evaluation of the tests. The insect species used in the systemic tests are Mexican bean beetle, southern armyworm, pea aphid, and twospotted spider mite.

confused flour beetle [4] = assay: Initial insecticidal activity, confused flour beetle; format: in vivo, Tribolium confusum Jacquelin duVal; conditions: Tribolium confusum, 48-hour exposure, read-out: % Kill, Confused Flour Beetle
Source text: as §3, §4

pea aphid [5] = assay: Initial insecticidal activity, pea aphid; format: in vivo, Acyrthosiphon pisum (Harris); conditions: Acyrthosiphon pisum, 48-hour exposure, read-out: % Kill, Pea Aphid
Source text: as §3, §4

southern armyworm [6] = assay: Initial insecticidal activity, southern armyworm; format: in vivo, Spodoptera eridania (Cramer); conditions: Spodoptera eridania, 48-hour exposure, read-out: % Kill, Southern Armyworm
Source text: as §3, §4

pea aphid [7] = assay: Systemic insecticidal activity (soil/water), pea aphid; format: in vivo, Acyrthosiphon pisum (Harris); conditions: Acyrthosiphon pisum, 48-hour exposure, read-out: % Kill, Pea Aphid
Procedure: as §5, §6

Mexican bean beetle [8] = assay: Systemic insecticidal activity (soil/water), Mexican bean beetle; format: in vivo, Epilachna varivestis Mulsant; conditions: Epilachna varivestis, 48-hour exposure, read-out: % Kill, Mexican Bean Beetle
Procedure: as §5, §6

twospotted spider mite [9] = assay: Ovicidal activity against the twospotted spider mite; format: in vivo, Tetranychus urticae Koch; conditions: Tetranychus urticae, eggs, 7 to 10 days, read-out: % Kill (ovicidal)
Procedure: d. Ovicidal Activity Against the Twospotted Spider Mite
In this test, Pinto bean seedlings are infested with female twospotted spider mites; about 3-4 hours are allowed for egg deposition. Plants are then dipped in TEPP (tetraethylpyrophosphate-commercial emulsifiable concentrate (EC)) solution containing 936 ppm of active ingredient. TEPP kills motile forms on the leaf and promptly degrades without effecting the egg stage. Two to three hours after TEPP treatment the plants are again dipped -- this time into a candidate insecticide solution. The test plants are maintained for 7 to 10 days. Termination of exposure is determined by the time required to attain complete hatch in the untreated check.

Mexican bean beetle [10] = assay: Initial insecticidal activity, Mexican bean beetle; format: in vivo, Epilachna varivestis Mulsant; conditions: Epilachna varivestis, 48-hour exposure, read-out: % Kill, Mexican Bean Beetle
Source text: as §3, §4

pea aphid [11] = assay: Seven-day residual insecticidal activity, pea aphid; format: in vivo, Acyrthosiphon pisum (Harris); conditions: Acyrthosiphon pisum, 48-hour exposure, read-out: % Kill, Pea Aphid
Source text: as §1, §2

twospotted spider mite [12] = assay: Systemic insecticidal activity (soil/water), twospotted spider mite; format: in vivo, Tetranychus urticae Koch; conditions: Tetranychus urticae, 48-hour exposure, read-out: % Kill, Twospotted Spider Mite
Procedure: as §5, §6

confused flour beetle [13] = assay: Seven-day residual insecticidal activity, confused flour beetle; format: in vivo, Tribolium confusum Jacquelin duVal; conditions: Tribolium confusum, 48-hour exposure, read-out: % Kill, Confused Flour Beetle
Source text: as §1, §2

twospotted spider mite [14] = assay: Initial insecticidal activity, twospotted spider mite; format: in vivo, Tetranychus urticae Koch; conditions: Tetranychus urticae, 48-hour exposure, read-out: % Kill, Twospotted Spider Mite
Source text: as §3, §4

Mexican bean beetle [15] = assay: Seven-day residual insecticidal activity, Mexican bean beetle; format: in vivo, Epilachna varivestis Mulsant; conditions: Epilachna varivestis, 48-hour exposure, read-out: % Kill, Mexican Bean Beetle
Source text: as §1, §2

plum curculio [16] = assay: Seven-day residual insecticidal activity, plum curculio; format: in vivo, Conotrachelus nenuphar (Herbst); conditions: Conotrachelus nenuphar, 48-hour exposure, read-out: % Kill, Plum Curculio
Source text: as §1, §2

twospotted spider mite [17] = assay: Seven-day residual insecticidal activity, twospotted spider mite; format: in vivo, Tetranychus urticae Koch; conditions: Tetranychus urticae, 48-hour exposure, read-out: % Kill, Twospotted Spider Mite
Source text: as §1, §2

large milkweed bug [18] = assay: Initial insecticidal activity, milkweed bug; format: in vivo, Oncopeltus fasciatus (Dallas); conditions: Oncopeltus fasciatus, 48-hour exposure, read-out: % Kill, Milkweed Bug
Source text: as §3, §4

southern armyworm [19] = assay: Seven-day residual insecticidal activity, southern armyworm; format: in vivo, Spodoptera eridania (Cramer); conditions: Spodoptera eridania, 48-hour exposure, read-out: % Kill, Southern Armyworm
Source text: as §1, §2

CCOP(=O)(OCC)N(CCc1ccccc1)SN(C)C(=O)Oc1cccc2c1OC(C)(C)C2 [9(c), 2,3-Dihydro-2,2-dimethyl-7-benzofuranyl [(N-diethoxyphosphinyl)(N-2-phenylethyl)aminosulfenyl][methyl-carbamate]]
mortality at 39 ppm (large milkweed bug [1]): 0% | mortality at 156 ppm (large milkweed bug [1]): 85% | mortality at 1250 ppm (large milkweed bug [1]): 100% | mortality at 39 ppm (plum curculio [2]): 0% | mortality at 156 ppm (plum curculio [2]): 5% | mortality at 1250 ppm (plum curculio [2]): 94% | mortality at 39 ppm (southern armyworm [3]): 0% | mortality at 156 ppm (southern armyworm [3]): 21% | mortality at 312 ppm (southern armyworm [3]; 312 ppm): 80% | mortality at 39 ppm (confused flour beetle [4]): 0% | mortality at 156 ppm (confused flour beetle [4]): 3% | mortality at 1250 ppm (confused flour beetle [4]): 8% | mortality at 39 ppm (pea aphid [5]): 0% | mortality at 156 ppm (pea aphid [5]): 0% | mortality at 1250 ppm (pea aphid [5]): 100% | mortality at 39 ppm (southern armyworm [6]): 0% | mortality at 156 ppm (southern armyworm [6]): 8% | mortality at 1250 ppm (southern armyworm [6]): 79% | mortality at 5 ppm (pea aphid [7]; 5 ppm): 0% | mortality at 10 ppm (pea aphid [7]): 0% | mortality at 39 ppm (pea aphid [7]): 0% | mortality at 156 ppm (pea aphid [7]): 100% | mortality at 5 ppm (Mexican bean beetle [8]; 5 ppm): 0% | mortality at 10 ppm (Mexican bean beetle [8]): 0% | mortality at 39 ppm (Mexican bean beetle [8]): 0% | mortality at 156 ppm (Mexican bean beetle [8]): 65% | mortality at 156 ppm (twospotted spider mite [9]): 0% | mortality at 1250 ppm (twospotted spider mite [9]): 94% | mortality at 39 ppm (Mexican bean beetle [10]): 60% | mortality at 156 ppm (Mexican bean beetle [10]): 100% | mortality at 1250 ppm (Mexican bean beetle [10]): 100% | mortality at 39 ppm (pea aphid [11]): 6% | mortality at 156 ppm (pea aphid [11]): 0% | mortality at 1250 ppm (pea aphid [11]): 0% | mortality at 39 ppm (twospotted spider mite [12]): 0% | mortality at 156 ppm (twospotted spider mite [12]): 0% | mortality at 312 ppm (twospotted spider mite [12]; 312 ppm): 2% | mortality at 39 ppm (confused flour beetle [13]): 0% | mortality at 156 ppm (confused flour beetle [13]): 0% | mortality at 1250 ppm (confused flour beetle [13]): 12% | mortality at 39 ppm (twospotted spider mite [14]): 3% | mortality at 156 ppm (twospotted spider mite [14]): 6% | mortality at 1250 ppm (twospotted spider mite [14]): 98% | mortality at 39 ppm (Mexican bean beetle [15]): 8% | mortality at 156 ppm (Mexican bean beetle [15]): 100% | mortality at 1250 ppm (Mexican bean beetle [15]): 100% | mortality at 39 ppm (plum curculio [16]): 0% | mortality at 156 ppm (plum curculio [16]): 0% | mortality at 1250 ppm (plum curculio [16]): 0% | mortality at 156 ppm (twospotted spider mite [17]): 0% | mortality at 1250 ppm (twospotted spider mite [17]): 0% | mortality at 39 ppm (large milkweed bug [18]): 6% | mortality at 156 ppm (large milkweed bug [18]): 100% | mortality at 1250 ppm (large milkweed bug [18]): 100% | mortality at 156 ppm (southern armyworm [19]): 0% | mortality at 1250 ppm (southern armyworm [19]): 25%

CCCN(SN(C)C(=O)Oc1cccc2c1OC(C)(C)C2)P(=O)(OCC)OCC [4(c), 2,3-dihydro-2,2-dimethyl-7-benzofuranyl [(N-diethoxyphosphinyl) (N-n-propyl)aminosulfenyl][methyl]carbamate]
mortality at 39 ppm (large milkweed bug [1]): 75% | mortality at 156 ppm (large milkweed bug [1]): 95% | mortality at 1250 ppm (large milkweed bug [1]): 100% | mortality at 39 ppm (plum curculio [2]): 0% | mortality at 156 ppm (plum curculio [2]): 50% | mortality at 1250 ppm (plum curculio [2]): 10% | mortality at 10 ppm (southern armyworm [3]; 10 ppm): 0% | mortality at 39 ppm (southern armyworm [3]): 0% | mortality at 156 ppm (southern armyworm [3]): 42% | mortality at 39 ppm (confused flour beetle [4]): 0% | mortality at 156 ppm (confused flour beetle [4]): 8% | mortality at 1250 ppm (confused flour beetle [4]): 65% | mortality at 39 ppm (pea aphid [5]): 33% | mortality at 156 ppm (pea aphid [5]): 100% | mortality at 1250 ppm (pea aphid [5]): 100% | mortality at 39 ppm (southern armyworm [6]): 0% | mortality at 156 ppm (southern armyworm [6]): 29% | mortality at 1250 ppm (southern armyworm [6]): 100% | mortality at 10 ppm (pea aphid [7]): 0% | mortality at 39 ppm (pea aphid [7]): 93% | mortality at 156 ppm (pea aphid [7]): 100% | mortality at 10 ppm (Mexican bean beetle [8]): 7% | mortality at 39 ppm (Mexican bean beetle [8]): 65% | mortality at 156 ppm (Mexican bean beetle [8]): 94% | mortality at 156 ppm (twospotted spider mite [9]): 0% | mortality at 1250 ppm (twospotted spider mite [9]): 66% | mortality at 39 ppm (Mexican bean beetle [10]): 86% | mortality at 156 ppm (Mexican bean beetle [10]): 100% | mortality at 1250 ppm (Mexican bean beetle [10]): 95% | mortality at 39 ppm (pea aphid [11]): 0% | mortality at 156 ppm (pea aphid [11]): 0% | mortality at 1250 ppm (pea aphid [11]): 100% | mortality at 10 ppm (twospotted spider mite [12]; 10 ppm): 0% | mortality at 39 ppm (twospotted spider mite [12]): 0% | mortality at 156 ppm (twospotted spider mite [12]): 7% | mortality at 39 ppm (confused flour beetle [13]): 0% | mortality at 156 ppm (confused flour beetle [13]): 0% | mortality at 1250 ppm (confused flour beetle [13]): 0% | mortality at 39 ppm (twospotted spider mite [14]): 8% | mortality at 156 ppm (twospotted spider mite [14]): 37% | mortality at 1250 ppm (twospotted spider mite [14]): 100% | mortality at 39 ppm (Mexican bean beetle [15]): 27% | mortality at 156 ppm (Mexican bean beetle [15]): 62% | mortality at 1250 ppm (Mexican bean beetle [15]): 100% | mortality at 39 ppm (plum curculio [16]): 0% | mortality at 156 ppm (plum curculio [16]): 0% | mortality at 1250 ppm (plum curculio [16]): 19% | mortality at 39 ppm (twospotted spider mite [17]; 39 ppm): 0% | mortality at 156 ppm (twospotted spider mite [17]): 0% | mortality at 1250 ppm (twospotted spider mite [17]): 2% | mortality at 39 ppm (large milkweed bug [18]): 90% | mortality at 156 ppm (large milkweed bug [18]): 100% | mortality at 1250 ppm (large milkweed bug [18]): 100% | mortality at 39 ppm (southern armyworm [19]; 39 ppm): 0% | mortality at 156 ppm (southern armyworm [19]): 5% | mortality at 1250 ppm (southern armyworm [19]): 60%
